Data on 2 compounds can be found in EP4729061A1, “USE OF AKT INHIBITOR IN PREPARATION OF DRUG FOR PREVENTING OR TREATING BREAST CANCER” (Nanjing Chia Tai Tianqing Pharmaceutical Co., Ltd., priority 2023, dated 2024).

Holding throughout (experiment): Cell proliferation inhibition, CTG (CelltiterGlo) method, alone or combined with fulvestrant
Assay type in all cases: cell-based

In one experiment the test system is BT-474 Cells. As to conditions: compound alone; for IC50: Homo sapiens, BT-474, 168 h, 7 days; for Maximum Inhibition Rate on BT-474 Cells: maximum value fitted by GraphPad Prism 8. As to the method: (§1) a). BT-474 cells were cultured in Hybri-Care medium supplemented with 1% antibiotics and 10% FBS, and incubated in the condition of 37°C with 5% CO2; b). MCF-7 cells were cultured in EMEM medium supplemented with 1% antibiotics, 0.01 mg/mL insulin, and 10% FBS, and incubated in the condition of 37°C with 5% CO2; c). ZR-75-1 cells were cultured in RPMI-1640 medium supplemented with 1% antibiotics and 10% FBS, and incubated in the condition of 37°C with 5% CO2; d). T47D cells were cultured in RPMI-1640 medium supplemented with 1% antibiotics, 0.2 U/mL insulin, and 10% FBS, and incubated in the condition of 37°C with 5% CO2; e) CAMA-1 cells were cultured in EMEM medium supplemented with 1% antibiotics and 10% FBS, and incubated in the condition of 37°C with 5% CO2.
(§2) a). Cells were routinely cultured until reaching 80%-90% confluence and when the required cell number was reached, they were harvested; b). Resuspended in the corresponding medium, counted, and prepared into a cell suspension with appropriate density; c). The cell suspension was added to a 384-well plate at 40 µL per well. Table 1. Plating densities of different cell lines
(§3) d). The cells were cultured overnight in an incubator at 37°C with 5% CO2 .
(§4) a). The compound of Formula (A) was serially diluted 3-fold for 10 concentrations starting from a stock solution of 60 mM (using the monofumarate dihydrate of the compound of Formula (A), with the concentration calculated based on the free base of the compound of Formula (A); the compound of Formula (A) or salt thereof was prepared with reference to the preparation method disclosed in WO2022017448A1); b). Fulvestrant was diluted from 10 mM to 2 mM with DMSO, then serially diluted 3-fold for 10 concentrations; c). Fulvestrant was diluted from 2 mM to 0.2 mM with DMSO, then serially diluted 3-fold for 10 concentrations; d). Fulvestrant was diluted from 0.2 mM to 2 µM with DMSO; e). Fulvestrant was diluted from 2 µM to 0.8 µM with DMSO; f). Fulvestrant was diluted from 2 µM to 0.3 µM with DMSO; g) Fulvestrant was diluted from 0.8 µM to 0.08 µM with DMSO; h). The final concentration of DMSO was 0.1%; i). Cells supplemented with DMSO served as control wells for high reading values; j). Cell-free medium served as control wells for low reading values.
(§5) 24 Hours after BT474 and ZR-75-1 cells were plated, the compound was administered alone. For the compound of Formula (A): 20 nL of the compound prepared in step 2.3 a) + 20 nL of DMSO were added. For the compound fulvestrant: 20 nL of the compound prepared in step 2.3 b) + 20 nL of DMSO were added.
(§6) 24 Hours after BT474 and ZR-75-1 cells were plated, the compound of Formula (A) was administered in combination with fulvestrant: 20 nL of the compound prepared in step 2.3 a) + 20 nL of the compounds prepared in step 2.3 b) and d).
(§7) Fulvestrant for point-to-point combination (nM): 1000, 333, 111, 37, 12.3, 4.1, 1.37, 0.46, 0.15, 0.05, which are respectively combined with the gradient concentrations of the compound of Formula (A); Fulvestrant for single-concentration combination (nM): 1000, 1, which are respectively combined with the gradient concentrations of the compound of Formula (A).
(§8) The compound of Formula (A) (nM): 30000, 10000, 3333, 1111, 370, 123, 41.2, 13.7, 4.57, 1.52; • Fulvestrant for point-to-point combination (nM): 100, 33.3, 11.1, 3.7, 1.23, 0.41, 0.14, 0.046, 0.015, 0.005, which are respectively combined with the gradient concentrations of the compound of Formula (A); • Fulvestrant for single-concentration combination (nM): 1.2, 0.14, which are respectively combined with the gradient concentrations of the compound of Formula (A). d). The cell culture plates were centrifuged at 1000 rpm for 1 min, then placed in an incubator at 37°C with 5% CO2 for 7 days.
(§9) a). 40 µL of CTG reagent (CelltiterGlo kit) was added to each well, placed on a rapid shaker for 2 minutes of oscillation, centrifuged at 1000 rpm for 1 min, and then left at room temperature in the dark for 30 minutes; b). […]

In a further experiment the test system is ZR-75-1 Cells. As to conditions: compound alone; for IC50: Homo sapiens, ZR-75-1, 168 h, 7 days; for Maximum Inhibition Rate on ZR-75-1 Cells: maximum value fitted by GraphPad Prism 8. Here is the method: as §1, §2, §3, §4, §5, §6, §7, §8, §9
Another experiment relates to CAMA-1 Cells. As to conditions: compound alone; for IC50: Homo sapiens, CAMA-1, 168 h, 7 days. As to the method: as §1, §2, §3
a). The compound of Formula (A) was serially diluted 3-fold for 10 concentrations starting from a stock solution of 60 mM (using the monofumarate dihydrate of the compound of Formula (A), with the concentration calculated based on the free base of the compound of Formula (A); the compound of Formula (A) or salt thereof was prepared with reference to the preparation method disclosed in WO2022017448A1); b). […] Cells supplemented with DMSO served as control wells for high reading values; j). Cell-free medium served as control wells for low reading values. […]
a). […] The chemiluminescent signal values were read using an Envision instrument.
Using the inhibition rate data measured by monotherapy or single-concentration combination therapy in Section 2.4, IC50 was calculated with GraphPad Prism 8 software. […]

SMILES strings stand for the structures. Bounds are passed on as bounds.

Take `CC(C)NC[C@@H](C(=O)N1CCN(c2ncnc3c2[C@H](C)CC(=O)N3)[C@H]2C[C@H]21)c1ccc(Cl)cc1` [The compound of Formula (A), (R)-4-((1S,6R)-5-((S)-2-(4-chlorophenyl)-3-(isopropylamino)propanoyl)-2,5-diazabicyclo[4.1.0]heptan-2-yl)-5-methyl-5,8-dihydropyrido[2,3-d]pyrimidin-7(6H)-one]: in the experiment with BT-474 Cells, the concentration for half-maximal inhibition (IC50) came out at 0.668 µM and the “Maximum Inhibition Rate on BT-474 Cells” value stood at 84.62%. For the same compound, in the experiment on ZR-75-1 Cells, the half-inhibitory concentration (IC50) stood at 2.17 µM and the “Maximum Inhibition Rate on ZR-75-1 Cells” value was 92.45%. The IC50 with CAMA-1 Cells stood at 1.13 µM. In the experiment with CAMA-1 Cells (maximum value fitted by GraphPad Prism 8), the “Maximum Inhibition Rate on CAMA-1 Cells” value came to 95.43%.
With `C[C@]12CC[C@@H]3c4ccc(O)cc4C[C@@H](CCCCCCCCC[S+]([O-])CCCC(F)(F)C(F)(F)F)[C@H]3[C@@H]1CC[C@@H]2O` (some centres unmarked) [Fulvestrant, reference compound], the IC50 was greater than 1 µM in the experiment on BT-474 Cells, greater than 1 µM with ZR-75-1 Cells and greater than 0.1 µM in the experiment on CAMA-1 Cells. Further, in the experiment with BT-474 Cells, the “Maximum Inhibition Rate on BT-474 Cells” value is 43.33%. Further, in the experiment on ZR-75-1 Cells, the “Maximum Inhibition Rate on ZR-75-1 Cells” value is recorded as 43.96%.
